Data published in BindingDB's records for doi:10.1021/jm070849r (Pfizer, 2008).

Target: T1, 3-hydroxy-3-methylglutaryl-coenzyme A reductase (Rattus norvegicus, UniProt P51639)
T1 sequence (P51639 whole entry): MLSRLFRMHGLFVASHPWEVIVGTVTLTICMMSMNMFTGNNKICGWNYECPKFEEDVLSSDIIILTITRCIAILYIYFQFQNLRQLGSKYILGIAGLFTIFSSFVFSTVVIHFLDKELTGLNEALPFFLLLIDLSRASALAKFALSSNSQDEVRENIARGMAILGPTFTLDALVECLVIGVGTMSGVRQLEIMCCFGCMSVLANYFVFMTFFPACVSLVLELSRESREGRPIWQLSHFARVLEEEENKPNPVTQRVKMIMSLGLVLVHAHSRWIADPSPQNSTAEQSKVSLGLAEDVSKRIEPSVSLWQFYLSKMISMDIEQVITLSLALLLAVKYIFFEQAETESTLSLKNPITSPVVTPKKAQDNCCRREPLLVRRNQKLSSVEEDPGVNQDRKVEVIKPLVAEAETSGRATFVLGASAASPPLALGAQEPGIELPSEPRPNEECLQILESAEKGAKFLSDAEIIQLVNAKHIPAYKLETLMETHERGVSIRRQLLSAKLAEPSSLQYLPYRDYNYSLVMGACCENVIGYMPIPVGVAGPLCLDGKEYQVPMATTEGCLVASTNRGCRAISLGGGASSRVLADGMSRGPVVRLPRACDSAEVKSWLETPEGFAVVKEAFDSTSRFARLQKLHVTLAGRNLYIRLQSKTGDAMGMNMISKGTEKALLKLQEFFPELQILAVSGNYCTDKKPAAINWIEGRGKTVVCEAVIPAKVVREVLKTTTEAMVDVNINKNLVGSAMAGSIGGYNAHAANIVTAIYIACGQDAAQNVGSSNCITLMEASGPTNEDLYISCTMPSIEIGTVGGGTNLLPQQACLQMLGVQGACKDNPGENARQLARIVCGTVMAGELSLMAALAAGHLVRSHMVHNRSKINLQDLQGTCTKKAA
Experiment: HMG-CoA Reductase Enzyme Assay and Inhibition of Cellular Cholesterol Synthesis Assay
Settings: pH 7.2; 37 °C
Procedure: Enzyme Assay for HMG-CoA reductase was based on the conversion of isotopically labeled HMG-CoA to mevalonic acid using rat liver microsomes as enzyme source. The product, [14C]-mevalonic acid was lactonized and separated from excess substrate via an anion ion exchange resin column, and radioactivity was counted on a scintillation counter. The IC50 values were calculated with GraphPad software (Prism). The cellular assay EC50/IC50 values were obtained from inhibition of cholesterol synthesis in rat hepatocyte.

| SMILES | IC50 |
| --- | --- |
| CC(C)c1nc(N(C)S(C)(=O)=O)nc(-c2ccc(F)cc2)c1/C=C/[C@@H](O)C[C@@H](O)CC(=O)O | 0.3 nM |
| CC(C)c1c(C(=O)NCc2ccccc2)nn(-c2ccc(F)cc2)c1CC[C@@H](O)C[C@@H](O)CC(=O)O [(3R,5R)-7-[3-(benzylcarbamoyl)-1-(4-fluorophenyl)-4-(propan-2-yl)-1H-pyrazol-5-yl]-3,5-dihydroxyheptanoic acid] | 0.3 nM |
| CC[C@H](C)C(=O)O[C@H]1C[C@H](O)C=C2C=C[C@H](C)[C@H](CC[C@@H](O)C[C@@H](O)CC(=O)O)[C@H]21 [(3R,5R)-7-[(1S,2S,6S,8S,8aR)-6-hydroxy-2-methyl-8-{[(2S)-2-methylbutanoyl]oxy}-1,2,6,7,8,8a-hexahydronaphthalen-1-yl]-3,5-dihydroxyheptanoic acid] | 17 nM |
| COCc1c(C(C)C)nc(C(C)C)c(/C=C/[C@@H](O)C[C@@H](O)CC(=O)O)c1-c1ccc(F)cc1 [(3R,5S,6E)-7-[4-(4-fluorophenyl)-5-(methoxymethyl)-2,6-bis(propan-2-yl)pyridin-3-yl]-3,5-dihydroxyhept-6-enoic acid] | 1.7 nM |
| Cc1ccc(CNC(=O)c2nn(-c3ccc(F)cc3)c(CC[C@@H](O)C[C@@H](O)CC(=O)O)c2C(C)C)cc1 [pyrazole-based inhibitor, 35] | 0.9 nM |
| CC(C)c1c(C(=O)N(C)Cc2cccc(F)c2F)nn(-c2ccc(F)cc2)c1CC[C@@H](O)C[C@@H](O)CC(=O)O [sodium (3R,5R)-7-(3-{[(2,3-difluorophenyl)methyl](methyl)carbamoyl}-1-(4-fluorophenyl)-4-(propan-2-yl)-1H-pyrazol-5-yl)-3,5-dihydroxyheptanoate] | 0.6 nM |
| CC(C)c1c(C(=O)N(C)Cc2ccc(F)cc2F)nn(-c2ccc(F)cc2)c1CC[C@@H](O)C[C@@H](O)CC(=O)O [sodium (3R,5R)-7-(3-{[(2,4-difluorophenyl)methyl](methyl)carbamoyl}-1-(4-fluorophenyl)-4-(propan-2-yl)-1H-pyrazol-5-yl)-3,5-dihydroxyheptanoate] | 2.1 nM |
| CC(C)c1c(C(=O)NCc2cccc(C#N)c2)nn(-c2ccc(F)cc2)c1CC[C@@H](O)C[C@@H](O)CC(=O)O [sodium (3R,5R)-7-(3-{[(3-cyanophenyl)methyl]carbamoyl}-1-(4-fluorophenyl)-4-(propan-2-yl)-1H-pyrazol-5-yl)-3,5-dihydroxyheptanoate] | 1.4 nM |
| COCc1cccc(CNC(=O)c2nn(-c3ccc(F)cc3)c(CC[C@@H](O)C[C@@H](O)CC(=O)O)c2C(C)C)c1 [sodium (3R,5R)-7-[1-(4-fluorophenyl)-3-({[3-(methoxymethyl)phenyl]methyl}carbamoyl)-4-(propan-2-yl)-1H-pyrazol-5-yl]-3,5-dihydroxyheptanoate] | 0.7 nM |
| CC(C)c1c(C(=O)N2CCCCC2c2ccccc2)nn(-c2ccc(F)cc2)c1CC[C@@H](O)C[C@@H](O)CC(=O)O (stereo partly drawn) [sodium (3R,5R)-7-[1-(4-fluorophenyl)-3-[(2-phenylpiperidin-1-yl)carbonyl]-4-(propan-2-yl)-1H-pyrazol-5-yl]-3,5-dihydroxyheptanoate] | 1.1 nM |
| CC(C)c1c(C(=O)N2CCCC2c2ccccc2)nn(-c2ccc(F)cc2)c1CC[C@@H](O)C[C@@H](O)CC(=O)O (stereo partly drawn) [sodium (3R,5R)-7-[1-(4-fluorophenyl)-3-[(2-phenylpyrrolidin-1-yl)carbonyl]-4-(propan-2-yl)-1H-pyrazol-5-yl]-3,5-dihydroxyheptanoate] | 4 nM |
| CC(C)c1c(C(=O)N2CCCC(c3ccccc3)C2)nn(-c2ccc(F)cc2)c1CC[C@@H](O)C[C@@H](O)CC(=O)O (stereo partly drawn) [sodium (3R,5R)-7-[1-(4-fluorophenyl)-3-[(3-phenylpiperidin-1-yl)carbonyl]-4-(propan-2-yl)-1H-pyrazol-5-yl]-3,5-dihydroxyheptanoate] | 0.4 nM |
| CC(C)c1c(C(=O)N(C)Cc2ccccc2F)nn(-c2ccc(F)cc2)c1CC[C@@H](O)C[C@@H](O)CC(=O)O [sodium (3R,5R)-7-[1-(4-fluorophenyl)-3-{[(2-fluorophenyl)methyl](methyl)carbamoyl}-4-(propan-2-yl)-1H-pyrazol-5-yl]-3,5-dihydroxyheptanoate] | 0.5 nM |
| CC(C)c1c(C(=O)N(C)Cc2cccc(F)c2)nn(-c2ccc(F)cc2)c1CC[C@@H](O)C[C@@H](O)CC(=O)O [sodium (3R,5R)-7-[1-(4-fluorophenyl)-3-{[(3-fluorophenyl)methyl](methyl)carbamoyl}-4-(propan-2-yl)-1H-pyrazol-5-yl]-3,5-dihydroxyheptanoate] | 0.2 nM |

More lines, now with the values ahead:

| IC50 | SMILES |
| --- | --- |
| 0.3 nM | CC(C)c1c(C(=O)N2CCC[C@H](c3ccccc3)C2)nn(-c2ccc(F)cc2)c1CC[C@@H](O)C[C@@H](O)CC(=O)O [sodium (3R,5R)-7-[1-(4-fluorophenyl)-3-{[(3R)-3-phenylpiperidin-1-yl]carbonyl}-4-(propan-2-yl)-1H-pyrazol-5-yl]-3,5-dihydroxyheptanoate] |
| 0.5 nM | CC(C)c1c(C(=O)N(C)Cc2ccc(F)cc2)nn(-c2ccc(F)cc2)c1CC[C@@H](O)C[C@@H](O)CC(=O)O [sodium (3R,5R)-7-[1-(4-fluorophenyl)-3-{[(4-fluorophenyl)methyl](methyl)carbamoyl}-4-(propan-2-yl)-1H-pyrazol-5-yl]-3,5-dihydroxyheptanoate] |
| 0.7 nM | CC(C)c1c(C(=O)NCc2ccc(F)cc2)nn(-c2ccc(F)cc2)c1CC[C@@H](O)C[C@@H](O)CC(=O)O [sodium (3R,5R)-7-[1-(4-fluorophenyl)-3-{[(4-fluorophenyl)methyl]carbamoyl}-4-(propan-2-yl)-1H-pyrazol-5-yl]-3,5-dihydroxyheptanoate] |
| 0.3 nM | COc1ccc(CN(C)C(=O)c2nn(-c3ccc(F)cc3)c(CC[C@@H](O)C[C@@H](O)CC(=O)O)c2C(C)C)cc1 [sodium (3R,5R)-7-[1-(4-fluorophenyl)-3-{[(4-methoxyphenyl)methyl](methyl)carbamoyl}-4-(propan-2-yl)-1H-pyrazol-5-yl]-3,5-dihydroxyheptanoate] |
| 0.4 nM | COc1ccc(CNC(=O)c2nn(-c3ccc(F)cc3)c(CC[C@@H](O)C[C@@H](O)CC(=O)O)c2C(C)C)cc1 [sodium (3R,5R)-7-[1-(4-fluorophenyl)-3-{[(4-methoxyphenyl)methyl]carbamoyl}-4-(propan-2-yl)-1H-pyrazol-5-yl]-3,5-dihydroxyheptanoate] |
| 2.1 nM | Cc1ccccc1CN(C)C(=O)c1nn(-c2ccc(F)cc2)c(CC[C@@H](O)C[C@@H](O)CC(=O)O)c1C(C)C [sodium (3R,5R)-7-[1-(4-fluorophenyl)-3-{methyl[(2-methylphenyl)methyl]carbamoyl}-4-(propan-2-yl)-1H-pyrazol-5-yl]-3,5-dihydroxyheptanoate] |
| 0.6 nM | Cc1cccc(CN(C)C(=O)c2nn(-c3ccc(F)cc3)c(CC[C@@H](O)C[C@@H](O)CC(=O)O)c2C(C)C)c1 [sodium (3R,5R)-7-[1-(4-fluorophenyl)-3-{methyl[(3-methylphenyl)methyl]carbamoyl}-4-(propan-2-yl)-1H-pyrazol-5-yl]-3,5-dihydroxyheptanoate] |
| 1.8 nM | Cc1ccc(CN(C)C(=O)c2nn(-c3ccc(F)cc3)c(CC[C@@H](O)C[C@@H](O)CC(=O)O)c2C(C)C)cc1 [sodium (3R,5R)-7-[1-(4-fluorophenyl)-3-{methyl[(4-methylphenyl)methyl]carbamoyl}-4-(propan-2-yl)-1H-pyrazol-5-yl]-3,5-dihydroxyheptanoate] |
| 23 nM | CC(C)c1c(C(=O)NCc2ccc(C(=O)N(C)C)cc2)nn(-c2ccc(F)cc2)c1CC[C@@H](O)C[C@@H](O)CC(=O)O [sodium (3R,5R)-7-[3-({[4-(dimethylcarbamoyl)phenyl]methyl}carbamoyl)-1-(4-fluorophenyl)-4-(propan-2-yl)-1H-pyrazol-5-yl]-3,5-dihydroxyheptanoate] |
| 5.5 nM | CCN(Cc1ccccc1)C(=O)c1nn(-c2ccc(F)cc2)c(CC[C@@H](O)C[C@@H](O)CC(=O)O)c1C(C)C [sodium (3R,5R)-7-{3-[benzyl(ethyl)carbamoyl]-1-(4-fluorophenyl)-4-(propan-2-yl)-1H-pyrazol-5-yl}-3,5-dihydroxyheptanoate] |
| 0.2 nM | CC(C)c1c(C(=O)N(C)Cc2ccccc2)nn(-c2ccc(F)cc2)c1CC[C@@H](O)C[C@@H](O)CC(=O)O [sodium (3R,5R)-7-{3-[benzyl(methyl)carbamoyl]-1-(4-fluorophenyl)-4-(propan-2-yl)-1H-pyrazol-5-yl}-3,5-dihydroxyheptanoate] |
| 10 nM | CC(C)c1c(C(=O)N(Cc2ccccc2)C(C)C)nn(-c2ccc(F)cc2)c1CC[C@@H](O)C[C@@H](O)CC(=O)O [sodium (3R,5R)-7-{3-[benzyl(propan-2-yl)carbamoyl]-1-(4-fluorophenyl)-4-(propan-2-yl)-1H-pyrazol-5-yl}-3,5-dihydroxyheptanoate] |

Same assay, conditions: pH 7.2; 37 °C; read-out: IC50

| IC50 | SMILES |
| --- | --- |
| 16 nM | Cc1ccccc1CN(C)C(=O)c1nn(-c2ccc(F)cc2)c(CC[C@@H](O)C[C@@H](O)CC(=O)O)c1C(C)C [sodium (3R,5R)-7-[1-(4-fluorophenyl)-3-{methyl[(2-methylphenyl)methyl]carbamoyl}-4-(propan-2-yl)-1H-pyrazol-5-yl]-3,5-dihydroxyheptanoate] |
